These results are taken from PMC6154605, “Multi-Anti-Parasitic Activity of Arylidene Ketones and Thiazolidene Hydrazines against Trypanosoma cruzi and Leishmania spp” (Molecules : A Journal of Synthetic Chemistry and Natural …, 2017).

Where two headings read alike, the source gives them in different places.

In one series the test system is zebrafish embryos. Nature of the series: Zebrafish embryo toxicity test (LD50). As to the method: […] Only embryos that were clearly undamaged after 60 min of observation were kept and subsequently used. Dechorionated embryos were further manipulated using flame-rounded tip glass Pasteur pipettes. […] In all cases, the embryos were incubated in system water with 1% DMSO (negative control) and the compound at different doses between 8 and 96 hpf. The treatment solution was changed daily. […] At selected time points, namely 24, 48, 72 and 96 hpf, embryotoxicity (= mortality) and morphological characteristics of the embryos were evaluated using a Nikon SMZ800 stereomicroscope. The embryos were evaluated for the presence and morphological development (as appropriate) of somites, tail detachment, eyes, heart beat and blood circulation. All individuals were evaluated at all time points.

Series [1] concerns L. infantum promastigotes. Kind of series: Leishmanicidal activity on promastigotes, resazurin. To be noted: Leishmania infantum, 48 h; read-out: IC50 ± SD Promastigotes L. infantum. It counts as cell-based, Leishmania infantum. An outline of the steps:
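Promastigotes (2 × 10^6/well) in Schneider's medium with 20% FBS treated with compound dilutions for 48 h at 26 °C. Resazurin reduction read at 570 and 600 nm; IC50 from duplicate experiments, triplicate concentrations.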

In series [2] the test system is J774.1 murine macrophages. To be noted: J774.1; read-out: IC50 ± SD Murine Macrophages; cited from earlier work.
For the next series, the target named is cruzipain (Trypanosoma cruzi, UniProt P25779). Nature of the series: Inhibition of T. cruzi cruzipain. The class given is biochemical. To be noted: at 100 µM; read-out: Percentage of Inhibition Cruzipain. As to the method:
Cruzipain was purified to homogeneity from epimastigotes of the Tulahuen 2 strain by ConA–Sepharose affinity chromatography, as previously described. Cruzipain (2.5 μM ε = 58,285 M^−1cm^−1) was incubated in 50 mM acetate buffer pH 5.5 with 5 mM DTT, and 100 μM inhibitor were added, shaking the solution for 15 min at 27 °C. The derivatives were added as solutions in DMSO, and the controls contained the same solvent concentration. The concentration of DMSO never exceeded 1% in the reaction medium. L-leucylam-ido(4-guanidino)butane (E-64) was used as a positive control of inhibition. Then, the fluorogenic substrate Z-Phe-Arg 7-amido-4-methylcoumarin hydrochloride (Z-Phe-Arg-AMC) at 10 μM was added, and the fluorescence was measured during 10 min at intervals of 3 s (excitation at 380 nm and emission at 460 nm) using a Varioskan Flash Spectrophotometer. From the slope of the negative control, we calculated the total (100%) enzyme activity, while the slopes obtained in the presence of the compounds yielded the percentage of remaining enzyme activity. The percentage of enzyme inhibition was determined as […]. The experiments were done in duplicate.

Series [3] concerns the target triosephosphate isomerase from T. cruzi (TcTIM) (Trypanosoma cruzi, UniProt P52270). Nature of the series: Inhibition of triosephosphate isomerase. As to conditions: read-out: Percentage of Inhibition TcTIM.
Protocol: Expression and purification of proteins: TcTIM, LmTIM and HsTIM were expressed in Escherichia coli and purified as described in the literature [39]. […] Before use, extensive dialysis against 100 mM triethanolamine/10 mM EDTA (pH 7.4) was performed.
Enzymatic activity assays: Enzymatic activity was determined following the conversion of glyceraldehyde 3-phosphate into dihydroxyacetone phosphate. […] The reaction mixture (1 mL, pH 7.4) contained 100 mM triethanolamine, 10 mM EDTA, 0.2 mM NADH, 1 mM glyceraldehyde 3-phosphate and 0.9 units of α-glycerol phosphate dehydrogenase. The reaction was initiated by the addition of 5 ng/mL of the TcTIM.
The mixture also contained the compounds at the indicated concentrations. Compounds were dissolved in DMSO. After 2 h, 10 µL was withdrawn and added to a final volume of 100 µL of the reaction mixture for the activity assay. The inhibition assay was performed in a 96-well microplate Varioskan spectrophotometer. […] The experiments were performed in triplicate.
The nature of series [4]: Drug bioconcentration in zebrafish embryos, UV-visible spectroscopy. As to conditions: whole embryo extract, 25 µM, incubation 25 µM, volume of measurement 100 µL, read-out: conc. in zebrafish embryos. The class given is in vivo. On the procedure:
To get an approximation of the distribution and concentration of GAT1033 (the lipophilic compound) in the embryos, in the presence and absence of the chorion, we conducted a first analysis visualizing the embryos by laser scanning confocal microscopy. […] We then quantified the internal concentration of GAT1033 by UV-visible spectroscopy (Figure 9). To do this, we incubated embryos, with and without chorion, with a fixed dose of the compound for different extensions of time. After this, we performed a standard chemical extraction and quantified using spectrophotometry and checking the integrity of the molecules by thin layer chromatography.
Following the same conditions as those of the embryo toxicity test, five embryos were incubated per well in 6-well plates with 5 mL of 25 μM GAT1033. Embryos were incubated with and without chorion, starting at 6 hpf. The incubation medium containing the compound was exchanged daily. Every 24 h, 30 embryos having the same conditions were taken to extract the compound for quantitation. The embryos were washed three times with aquarium water and then centrifuged at low speed to pull out the total remaining solvent. The embryos were then resuspended in 1 mL of aquarium water and lysed by sonication (Omni Sonic Ruptor Omni Sonic Ruptor 400 Ultrasonic Homogenizer) on an ice bath with 4-times half-intensity-15-second pulses, resting 5 seconds. The extract was incubated with 1 mL of methanol/chloroform (2:1) for 5 min at 25 °C, followed by five chloroform extractions. The organic phase was dried over anhydrous sodium sulfate and evaporated in vacuo. The crude extract was dissolved in 100 µL acetonitrile (Merck, HPLC grade) for spectrophotometric measurements (Spectrophotometer double beam UV-Vis model Cary 60 Agilent Cary WinUV). The calibration curve and all of the experiments were performed with GAT1033 under the same conditions. For this, we used the Beer–Lambert–Bouguer Law (BLB law). Optical data for GAT1033 are: ε = (14.7 ± 0.5) cm^−1mM^−1, λmax = 379 nm, emission 530 nm.

triosephosphate isomerase from T. cruzi (TcTIM), sequence (P52270 whole entry): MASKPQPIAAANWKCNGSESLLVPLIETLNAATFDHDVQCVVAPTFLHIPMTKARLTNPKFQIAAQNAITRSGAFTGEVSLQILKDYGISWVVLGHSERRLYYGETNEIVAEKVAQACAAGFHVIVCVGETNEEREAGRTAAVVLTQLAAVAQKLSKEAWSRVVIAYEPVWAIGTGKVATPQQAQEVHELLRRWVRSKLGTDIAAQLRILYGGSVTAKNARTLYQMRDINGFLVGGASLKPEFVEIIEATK
cruzipain, sequence (P25779 123-467): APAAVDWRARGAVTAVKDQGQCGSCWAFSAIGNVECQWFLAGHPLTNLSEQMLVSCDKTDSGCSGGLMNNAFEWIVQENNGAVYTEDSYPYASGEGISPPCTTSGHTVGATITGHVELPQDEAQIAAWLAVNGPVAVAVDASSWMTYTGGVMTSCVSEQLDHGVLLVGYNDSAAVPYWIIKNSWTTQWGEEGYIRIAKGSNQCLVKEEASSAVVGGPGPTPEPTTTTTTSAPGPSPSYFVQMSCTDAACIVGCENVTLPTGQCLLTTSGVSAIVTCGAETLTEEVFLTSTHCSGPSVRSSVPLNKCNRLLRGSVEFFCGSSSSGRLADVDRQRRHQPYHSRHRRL

In turn, `C=CCn1c(-c2ccc(Cl)cc2)cs\c1=N/N=C/C=C/c1ccco1` [GAT1033] displayed an LD50 without chorion with zebrafish embryos (dechorionated zebrafish embryos, 72 h incubation) of 27 ± 1 µM. Also, the LD50 with chorion in the series with zebrafish embryos (zebrafish embryos with chorion) was greater than 100 µM. Also, the IC50 is 2 ± 0.2 µM in series [1] and 60 ± 6 µM in series [2]. Further, the inhibition at 100 µM (on cruzipain; in series [3]) was 0% each time. Further, the concentration at 24 h was 0.3 µM in series [4] (with chorion) and 0.4 µM in series [4] (without chorion). Further, the concentration at 48 h in series [4] (with chorion) was found to be 4.8 µM; in series [4] (without chorion) it was 7.3 µM. Also, the concentration at 72 h is 1.8 µM in series [4] (with chorion) and 8.1 µM in series [4] (without chorion).
